Experimental data reported in patent US20090011442A1, “TB diagnostics based on mycobacterium tuberculosis excretory secretory antigens and their specific immunoglobulins” (priority 2007, published 2009).
Where two headings read alike, the source gives them in different places.

Columns and labels:
[1] = test system: mycobacterial serine protease (Seva TB ES-31); type: biochemical, Mycobacterium tuberculosis H37Ra
M. tb H37Ra bacilli = assay: microbe, parasite or virus in culture; type: cell-based, Mycobacterium tuberculosis H37Ra
[2] = Mycobacterium tuberculosis, H37RA, read-out: % Inhibition on culture

With c1cnc2c(c1)ccc1cccnc12 [1,10 Phenanthroline] the “Inhibition (%)” value [1] was 78%, the “Residual activity (%)” value [1] was 22.4 ± 0.47% and the “serine protease enzyme activity, effect in words” value (“serine protease enzyme activity” below) [1] was “inhibited”. It also gave an inhibition at 10 µM (M. tb H37Ra bacilli; [2]) of 81%.

For O=c1oc(Cl)c(Cl)c2ccccc12 [3,4-Dichloroisocoumarin], the “serine protease enzyme activity” value [1] was “inhibited”, the “Inhibition (%)” value ([1]; 10 µM) was 90% and the “Residual activity (%)” value ([1]; 10 µM) was 9.84 ± 0.07%. For the same compound, the inhibition at 0.2 µM (M. tb H37Ra bacilli; [2]) was 85%.

For CC[C@@H](CO)NCCN[C@@H](CC)CO [EMB, ethambutol], the “% Inhibition of Serine protease” value [1] was 70%, the “serine protease enzyme activity” value [1] was “inhibited” and the “Effect on H37Ra culture (LJ slant/Sautons' medium)” value (shortened to “Effect … (LJ slant/Sautons' medium)”) (M. tb H37Ra bacilli) was “No Growth”. For the same compound, the “bacillary growth on LJ slant and in Sautons' broth, effect in words” value (shortened to “bacillary growth”) (M. tb H37Ra bacilli) was “inhibition of bacillary growth”.

For O=C(O)CN(CCN(CC(=O)O)CC(=O)O)CC(=O)O [Ethylene diamine tetracetic acid (EDTA), Ethylene diamine tetracetic acid], the “Inhibition (%)” value [1] was 65%, the “Residual activity (%)” value [1] was 35.3 ± 0.89% and the “serine protease enzyme activity” value [1] was “inhibited”.

In the case of NNC(=O)c1ccncc1 [INH, isoniazid], the “% Inhibition of Serine protease” value [1] is reported as 85%, the “inhibition of serine protease activity” value [1] is reported as 85% and the “serine protease enzyme activity” value [1] is reported as “inhibited”. The “Effect … (LJ slant/Sautons' medium)” value (M. tb H37Ra bacilli) was “No Growth” and the “bacillary growth” value (M. tb H37Ra bacilli) was “inhibition of bacillary growth”.

NC(=O)c1cnccn1 [PZA] was tested, and the “% Inhibition of Serine protease” value [1] was 0%.

Cl.NCCc1ccc(S(=O)(=O)F)cc1 [Pefabloc] was tested, and the “Inhibition (%)” value [1] was 92%, the “Residual activity (%)” value [1] was 7.56 ± 0.07% and the “serine protease enzyme activity” value [1] was “inhibited”. The “% Inhibition on culture” value (M. tb H37Ra bacilli; 10 µM) was 88%.

For O=S(=O)(F)Cc1ccccc1 [Phenyl methyl sulphonyl fluoride (PMSF), Phenyl methyl sulphonyl fluoride], the “Inhibition (%)” value [1] was 80%, the “Residual activity (%)” value [1] was 19.6 ± 0.2% and the “serine protease enzyme activity” value [1] was “inhibited”. The “% Inhibition on culture” value (M. tb H37Ra bacilli; 20 µM) was 72%.

With [H]/N=C(/N)N[C@H]1[C@H](O)[C@@H](O)[C@H](O[C@@H]2O[C@@H](C)[C@](O)(C=O)[C@H]2O[C@@H]2O[C@@H](CO)[C@H](O)[C@@H](O)[C@@H]2NC)[C@@H](N/C(N)=N\[H])[C@@H]1O [SM, streptomycin] the “% Inhibition of Serine protease” value [1] was 30%, the “serine protease enzyme activity” value [1] was “inhibited” and the “Effect … (LJ slant/Sautons' medium)” value (M. tb H37Ra bacilli) was “No Growth”. For the same compound, the “bacillary growth” value (M. tb H37Ra bacilli) was “inhibition of bacillary growth”.
